Test [1] has as its target T1, Estrogen receptor (Homo sapiens, UniProt Q92731+P03372). In words: Displacement of [3H]estradiol from estrogen receptor in squirrel monkey. Format: protein assay.
Test [2] has as its target T1, Estrogen receptor. In words: Displacement of [3H]estradiol from estrogen receptor in immature rabbit. The settings on record: target entry is the homologue from another species. Format: protein assay, Oryctolagus cuniculus. (In general: Displacement assays read how much labelled ligand stays bound in the presence of the test substance.)
Test [3] has as its target T2, Estrogen receptor (Rattus norvegicus, UniProt P06211+Q62986). Put plainly: Displacement of [3H]estradiol from estrogen receptor in immature rat. Format: protein assay.
Test [4] deals with T2, Estrogen receptor. In words: Displacement of [3H]estradiol from estrogen receptor in mature rat. Format: protein assay.
Test [5] concerns Rattus norvegicus. In words: In vivo anti-fertility activity in rat. Format: functional.
Test [6] deals with T3, Estrogen receptor (Rattus norvegicus) (UniProt P06211+Q62986).
Test [7] deals with T1, Estrogen receptor. The settings on record: Macaca mulatta.
The species entered for test [8] is Rattus norvegicus.
Test [9] addresses T3, Estrogen receptor (Rattus norvegicus). The source holds these as a separate data set.
Test [10] shares this target. This is another data set of the same source.
Test [11] has the same target. In words: In vivo estrogenic receptor potency relative to ethynylestradiol in rat. Format: functional, organism-based.
Test [12] concerns the target T1, Estrogen receptor. Put plainly: Estrogenic effect in rhesus monkey relative to ethynylestradiol. The settings on record: Macaca mulatta; target entry is the homologue from another species. Format: functional.
The target in test [13] is T2, Estrogen receptor.
Test [14] can be described thus: Selectivity ratio for antifertility and estrogenic potencies in rats. Format: functional.
In test [15] the test system is Rattus norvegicus. Put plainly: In vivo […] activity in rats. Format: functional.
Test [16] concerns the target T3, Estrogen receptor (Rattus norvegicus). In words: In vivo uterotrophic effect in immature rats. Format: functional, organism-based.
For test [17], the target named is T2, Estrogen receptor. This is another data set of the same source.
The subject of test [18] is Rattus norvegicus. In words: In vivo antifertility potency in rats at 200 ug/kg/day. Type of test: functional.

Converted amounts (≈) assume the structure as drawn.

`C#C[C@]1(O)CC[C@H]2[C@@H]3[C@H](O)Cc4cc(O)ccc4[C@H]3CC[C@@]21C`: the EC50 (as a rule, the concentration at which the effect is half-maximal) came to 52 µg/mL (≈ 166 µM) at Estrogen receptor [1], 36 µg/mL (≈ 115 µM) on Estrogen receptor [2], 18 µg/mL (≈ 57.6 µM) on Estrogen receptor [3] and 6 µg/mL (≈ 19.2 µM) at Estrogen receptor [4]. This molecule had an Antifertility activity with Rattus norvegicus [5] of 66. The molecule further showed an Estrogenic potency in test [6] of 0.3. At Estrogen receptor [7], this molecule came in with an Estrogenic effect of 100. The molecule also came in with an Antifertility potency in the test listed under Rattus norvegicus [8] of 66. Also, the Uterotrophic effect worked out at 0.1 in test [9] and 10 in test [10].
On to `CC[C@H]1CC[C@H]2[C@@H]3CCc4cc(O)ccc4[C@H]3CC[C@]12C` (stereo in doubt; 8b) [listing 1 of 2 here], for which the Estrogenic potency in test [11] amounted to 1. Moreover, the figures for the Uterotrophic effect in test [9] and in test [10] were 1 and 11, respectively.
As to `CC[C@H]1CC[C@H]2[C@@H]3CCc4cc(O)ccc4[C@H]3[C@@H](O)C[C@]12C`, the EC50 at Estrogen receptor [1] worked out at 22 µg/mL (≈ 73.2 µM); on Estrogen receptor [13] it was 5.6 µg/mL (≈ 18.6 µM). On Estrogen receptor [12], this molecule returned an Estrogenic effect of under 8. Besides, the Antifertility activity in the test with Rattus norvegicus [5] is given as 20. In addition, the Estrogenic potency in [6] worked out at 0.03. For the same molecule, in the test listed under Rattus norvegicus [8], the Antifertility potency amounted to 20. Besides, the Uterotrophic effect in test [9] is 0.04; in [10] it was 2.
With `C=C1CC[C@H]2[C@@H]3CCc4cc(O)ccc4[C@H]3CC[C@]12C`, the values for the EC50 at Estrogen receptor [2] and on Estrogen receptor [4] were 1.5 µg/mL (≈ 5.59 µM) and 0.8 µg/mL (≈ 2.98 µM), respectively. For the same molecule, the Ratio in test [14] is given as 80. For the same molecule, the Estrogenic potency was 0.5 in test [6] and 0.65 in [6] (tested as the 2H-labelled form). Moreover, the Antifertility potency in the test filed under Rattus norvegicus [8] amounted to 40.
`C#C[C@]1(O)CC[C@H]2[C@@H]3CCc4cc(O)ccc4[C@H]3CC[C@@]21C` [ETHINYL ESTRADIOL] showed an Infertility activity with Rattus norvegicus [15] of 100. This molecule showed an Antifertility potency in the test filed under Rattus norvegicus [8] of 100.
On to `C#C[C@]1(O)CC[C@H]2[C@@H]3CCc4cc(O)ccc4[C@H]3[C@@H](O)C[C@@]21C`, for which the EC50 at Estrogen receptor [1] came out at 150 µg/mL (≈ 480 µM); at Estrogen receptor [2], 8 µg/mL (≈ 25.6 µM); at Estrogen receptor [13] it was 5.2 µg/mL (≈ 16.6 µM); at Estrogen receptor [17], 16 µg/mL (≈ 51.2 µM). The Infertility activity with Rattus norvegicus [15] stood at 100; in [16], 150. In [6], this molecule registered an Estrogenic potency of 120. The same molecule registered an Estrogenic effect at Estrogen receptor [7] of 500. The Antifertility potency in the test listed under Rattus norvegicus [8] stood at 200. For the same molecule, the figures for the Uterotrophic effect in test [9] and in [10] were 5 and 19, respectively.
For the molecule `CC[C@H]1CC[C@H]2[C@@H]3CCc4cc(O)ccc4[C@H]3CC[C@]12C` (stereo in doubt; 8b) [listing 2 of 2 here], the EC50 was found to be 60 µg/mL (≈ 211 µM) on Estrogen receptor [1], 11 µg/mL (≈ 38.7 µM) on Estrogen receptor [2], 20 µg/mL (≈ 70.3 µM) at Estrogen receptor [13] and 8 µg/mL (≈ 28.1 µM) on Estrogen receptor [17]. In the test with Rattus norvegicus [15], this molecule came in with an Infertility activity of 66. Moreover, in the test filed under Rattus norvegicus [8], the Antifertility potency turned out to be 66.
Turning to `CO/N=C1\CC[C@H]2[C@@H]3CCc4cc(O)ccc4[C@H]3CC[C@]12C`, the Antifertility potency in the test on Rattus norvegicus [18] was found to be 4. This molecule had an Estrogenic potency in [6] of 0.04.

For the origin of these results see ChEMBL document CHEMBL1124539, “17-Desoxy estrogen analogues” (J Med Chem, 1989).
